From US11891373B2, “Crystalline forms of 1-((2R,4R)-2-(1H-benzo[d]imidazol-2-yl)-1-methylpiperidin-4-yl)-3-(4-cyanophenyl)urea maleate” (priority 2015, dated 2024)
Structures can show the parent of a compound that is named as a salt.

Tests used:
Type in all cases: physicochemical
[1] = Chemical stability of tablet cores (5% drug loading), open dish, HPLC/Purity analysis; conditions: 5% active drug loading; for % -(2S,4R)-Epimer 6 weeks @ 50° C./75% RH: open dish
Protocol: Comparative chemical and physical stability data was generated for tablet cores comprising glasdegib dihydrochloride monohydrate (diHCl.H2O) and glasdegib maleate (Form 1) stored at 50° C./75% RH for 6 weeks. The tablet cores were prepared by dry granulation processing in a formulation composition comprising microcrystalline cellulose, dicalcium phosphate, sodium starch glycolate and magnesium stearate at an active drug loading level of 5%. The tablet cores were stored in open dish (no packaging) orientation in a 50° C./75% RH chamber and analyzed after 6 weeks of storage. The analytical testing included HPLC/Purity analysis and solid state NMR (for solid form).
The primary degradation product monitored is the epimeric 1-((2S,4R)-2-(1H-benzo[d]imidazol-2-yl)-1-methylpiperidin-4-yl)-3-(4-cyanophenyl)urea, which has the structure: […]

[2] = Comparative thermal stability by Differential Scanning Calorimetry (DSC); conditions: 25° C. to 250° C. at 10° C./min, dry nitrogen purge
Protocol: Comparative thermal stability data was generated for glasdegib dihydrochloride monohydrate (diHCl.H2O) and glasdegib maleate (Form 1). Differential Scanning calorimetry (DSC) measurements were performed with Discovery DSC (TA instruments) equipped with a refrigerated cooling accessory. All the experiments were performed in standard/Tzero aluminum pans. The cell constant was determined using indium and temperature calibration was performed using indium and tin as standards. All the measurements were done under continuous dry nitrogen purge (50 mL/min). Approximately 2-5 mg of solid sample was weighed into a standard/Tzero aluminum pan, sealed non-hermetically and heated from 25° C. to 250° C. at 10° C./min heating rate. The experimental data were analyzed using commercially available software (TA Universal Analysis 2000/Trios software, TA Instruments).

[3] = Accelerated 21-day stability study of tablets, shelf-life prediction from (2S,4R)-epimer formation; conditions: 60 cc HDPE bottle, 30 count tablets, 25° C./60% RH, epimer limit NMT 0.5%
Protocol: See Waterman et al., Pharmaceutical Research, 24(4): 780-790 (2007). The tablets were stored in open glass bottles and exposed to various temperature, humidities and durations.
The recommended packaging for the glasdegib dihydrochloride monohydrate tablets is HDPE/IS Bottle, with desiccant. The labeled storage condition of this product is 15-25° C.
The recommended packaging for the glasdegib maleate tablets is HDPE/IS Bottle and no desiccant is required. The labeled storage condition of this product is 15-25° C.

With `CN1CC[C@@H](NC(=O)Nc2ccc(C#N)cc2)C[C@@H]1c1nc2ccccc2[nH]1` [Glasdegib dihydrochloride monohydrate] the “% -(2S,4R)-Epimer 6 weeks @ 50° C./75% RH” value [1] was 2.75%, the “Thermal Stability (stable up to)” value [2] was “Stable up to 50 °C” and the “shelf-life predicted, with desiccant” value ([3]; with desiccant) was “approximately 5 years”. The “shelf-life predicted, stored without desiccant” value [3] was “less than 2 years”.
In the case of `CN1CC[C@@H](NC(=O)Nc2ccc(C#N)cc2)C[C@@H]1c1nc2ccccc2[nH]1.O=C(O)/C=C\C(=O)O` [Glasdegib maleate (Form 1), 1-((2R,4R)-2-(1H-benzo[d]imidazol-2-yl)-1-methylpiperidin-4-yl)-3-(4-cyanophenyl)urea maleate], the “% -(2S,4R)-Epimer Initial Level” value ([1]; before storage) is reported as 0.024%, the “% -(2S,4R)-Epimer 6 weeks @ 50° C./75% RH” value [1] is reported as 0.55% and the “Thermal Stability (stable up to)” value [2] is reported as “Stable up to 207 °C”. For the same compound, the “shelf-life predicted, stored without desiccant” value [3] was “more than 6 years”.
